Test results reported in patent US20190315823A1, “SMALL CATIONIC ANTI-BIOFILM AND IDR PEPTIDES” (priority 2013, published 2019).
Peptide text beside a SMILES is read from it.

Tests used:
[1] = system: Klebsiella pneumoniae (Kp) biofilm; type: cell-based; details: peptide 10 μg/ml
Method: (§1) Methods of assessment of anti-biofilm activity—Biofilm formation was initially analyzed using a static abiotic solid surface assay as described elsewhere (de la Fuente-Nunez et al., 2012). Dilutions (1/100) of overnight cultures were incubated in BM2 biofilm-adjusted medium [62 mM potassium phosphate buffer (pH 7), 7 mM (NH4)2SO4, 2 mM MgSO4, 10 μM FeSO4, 0.4% (wt/vol) glucose, 0.5% (wt/vol) Casamino Acids], or a nutrient medium such as Luria Broth, in polypropylene microtiter plates (Falcon, United States) in the absence (control) or presence of peptide. Peptide was added at time zero (prior to adding the diluted, overnight cultures) in varying concentrations, and the decrease in biofilm formation was recorded at 22-46 h for most bacteria. Planktonic cells were removed, biofilm cells adhering to the side of the tubes were stained with crystal violet, and absorbance at 595 nm was measured using a microtiter plate reader (Bio-Tek Instruments Inc., United States). Some peptides were screened against two Gram negative organisms, P. aeruginosa and K. pneumoniae using a Bioflux apparatus (AutoMate Scientific, Berkeley, Calif.; http://www.autom8.com/bioflux_biofilm.html), which allows for the high-throughput, real-time analysis of biofilms.

[2] = system: Pseudomonas aeruginosa (Pa) biofilm; assay: static abiotic solid surface (microtiter, crystal violet) / Bioflux biofilm inhibition screen; type: cell-based; details: peptide 10 μg/ml
Method: FIG. 1. Identification of new anti-biofilm peptides active against P. aeruginosa using the microtiter plate screening method with crystal violet staining. […] As a control peptide 1037 was utilized [de la Fuente Nunez et al. 2011].
as §1

[3] = system: human peripheral blood mononuclear cells (MCP-1); assay: MCP-1 chemokine production by ELISA; type: cell-based; details: 24 hours of stimulation; lowest peptide concentration 20 μg/ml
Method: FIG. 19. High production of anti-infective chemokine MCP-1 by human peripheral blood mononuclear cells treated with peptides, as determined by ELISA after 24 hours of stimulation.
Venous blood (20 ml) from healthy volunteers was collected in Vacutainer® collection tubes containing sodium heparin as an anticoagulant (Becton Dickinson, Mississauga, ON) in accordance with UBC ethical approval and guidelines. Blood was diluted 1:1 with complete RPMI 1640 medium and separated by centrifugation over a Ficoll-Paque® Plus (Amersham Biosciences, Piscataway, N.J., USA) density gradient. White blood cells were isolated from the buffy coat, washed twice in RPMI 1640 complete medium, and the number of peripheral blood mononuclear cells (PBMC) was determined by Trypan blue exclusion. PBMC (5×10^5) were seeded into 12-well tissue culture dishes (Falcon; Becton Dickinson) at 0.75 to 1×10^6 cells/ml at 37° C. in 5% CO2. The above conditions were chosen to mimic conditions for circulating blood monocytes entering tissues at the site of infection via extravasation.
Following incubation of the cells under various treatment regimens, the tissue culture supernatants were centrifuged at 1000×g for 5 min, then at 10,000×g for 2 min to obtain cell-free samples. Supernatants were aliquoted and then stored at −20° C. prior to assay for various chemokines by capture ELISA (eBioscience and BioSource International Inc., CA, USA respectively)

human PBMC (TNFα) = assay: LPS-induced TNFα production by ELISA; type: cell-based; details: P. aeruginosa LPS, 24 hr
Method: FIG. 20. Ability of peptides to knockdown pro-inflammatory cytokine TNFα production by human PBMCs in response to bacterial LPS treatment as determined by ELISA after 24 hours.
LPS from P. aeruginosa strain H103 was highly purified free of proteins and lipids using the Darveau-Hancock method. Briefly, P. aeruginosa was grown overnight in LB broth at 37° C. Cells were collected and washed and the isolated LPS pellets were extracted with a 2:1 chloroform:methanol solution to remove contaminating lipids. Purified LPS samples were quantitated using an assay for the specific sugar 2-keto-3-deoxyoctosonic acid (KDO assay) and then resuspended in endotoxin-free water (Sigma-Aldrich).
Human PBMC were obtained as described above and treated with P. aeruginosa LPS (10 or 100 ng/ml) with or without peptides for 24 hr after which supernatants were collected and TNFα assessed by ELISA.

human PBMC (MCP-1) = assay: synergy with poly(I:C) to increase MCP-1 production; type: cell-based; details: 10 μg/ml peptide with 20 μg/ml poly(I:C)
Method: FIG. 21. Ability of 10 μg/ml of peptides in combination with 20 or 5 μg/ml of the known adjuvant poly inosine:cytosine [poly(I:C)] to synergize to increase MCP-1 production, a known adjuvant property [see Kindrachuk, J., H. Jenssen, M. Elliott, R. Townsend, A. Nijnik, S. F. Lee, V. Gerdts, L. A. Babiuk, S. A. Halperin and R. E. W. Hancock. 2009. A novel vaccine adjuvant comprised of a synthetic innate defence regulator peptide and CpG oligonucleotide links innate and adaptive immunity. Vaccine 27:4662-4671].
It is well accepted that vaccine immunization is best achieved by co-adminstration of an adjuvant. The precise mechanism by which these adjuvants work has eluded immunologists but appears to work in part by upregulating elements of innate immunity that smooth the transition to adaptive (antigen-specific) immunity (Bendelac A and R. Medzhitov. 2002. Adjuvants of immunity: Harnessing innate immunity to promote adaptive immunity J. Exp. Med. 195:F19-F23). Within this concept there are several possible avenues by which adjuvants might work including the attraction of immune cells into the site at which a particular antigen is injected, through e.g. upregulation of chemokines, the appropriate activation of cells when they reach that site, which can be caused by local cell or tissue damage releasing endogenous adjuvants or through specific cell activation by the adjuvants, and the compartmentalization of immune responses to the site of immunization (the so-called “depot” effect). […] 2010. Immunomodulators as adjuvants for vaccines and antimicrobial therapy. Ann. NY Acad. Sci. 1213:46-61].

[4] = system: Pseudomonas aeruginosa PA14 and PAO1 and Burkholderia cenocepacia; assay: swarming and surfing motility; type: cell-based
Source text: Motility is strongly involved in the virulence of bacteria since it plays an important role in the attachment of bacteria to surfaces, including those in the body and on indwelling medical devices, and in colonization of these surfaces and biofilm formation. P. aeruginosa is known to utilize at least 4 different types of motility: (a) flagellum-mediated swimming in aqueous environments and at low agar concentrations (<0.3% agar), (b) type IV pilus-mediated twitching on solid surfaces or interfaces, (c) swarming on semi-solid media (0.5-0.7% agar) in poor nitrogen (N) sources such as amino acids (AA) and (d) surfing on low agar concentrations containing mucin.
Swarming motility is a social phenomenon (a complex adaptation) involving the coordinated and rapid movement of bacteria across a semi-solid (viscous) surface, and is widespread among flagellated pathogenic bacteria. […]
This was independent of bacterial killing (antimicrobial peptide action measured by MIC) since these peptides were able to inhibit the swarming of Burkholderia cenocepacia, which as mentioned above is completely resistant to all cationic antimicrobial peptides due to its altered outer membrane.

P. aeruginosa biofilms = details: biofilms
Method: Peptides and various conventional antibiotics were analyzed by checkerboard titration into microtiter trays using CLSI methods (Wiegand, I., K. Hilpert, and R. E. W. Hancock. 2008. Nature Protocols 3:163-175), bacteria added and, after overnight incubation at 37° C., the residual biofilm assessed by the crystal violet method mentioned in the body of the grant, with an A595 of 0.2 considered as 100% biofilm inhibition. The effects of the peptide in reducing the minimal biofilm inhibitory concentration (MBIC) of the antibiotic and vice versa were assessed using the Fractional Inhibitory Concentration (FIC) method whereby ΣFTC=FICA+FICB=(CA/MICA)+(CB/MICB), where MBICA and MBICB are the MBICs of peptide A and antibiotic B alone, respectively, and CA and CB (expressed in μg/ml) are the MICs of the drugs in combination. This conventional clinical microbiology assay is interpreted as follows

| Molecule | % Biofilm Inhibition Kp [1] [%] | % Biofilm Inhibition Pa [2] [%] | MCP-1 induction [3] | suppression of LPS-induced TNFα (human PBMC (TNFα)) | synergy with poly(I:C) in MCP-1 production (human PBMC (MCP-1)) | other results |
| --- | --- | --- | --- | --- | --- | --- |
| CC[C@H](C)[C@H](N)C(=O)N[C@@H](CC(C)C)C(=O)N[C@@H](CCCNC(=N)N)C(=O)N[C@@H](Cc1c[nH]c2ccccc12)C(=O)N1CCC[C@H]1C(=O)N[C@@H](Cc1c[nH]c2ccccc12)C(=O)N1CCC[C@H]1C(=O)N[C@@H](Cc1c[nH]c2ccccc12)C(=O)N[C@@H](CCCNC(=N)N)C(=O)N[C@@H](CCCNC(=N)N)C(=O)N[C@@H](CCCCN)C(N)=O [MX226, reference compound] (H-ILRWPWPWRRK-NH2; N-terminus assumed) | 18 | 18 | – | – | – | – |
| CC[C@H](C)[C@H](NC(=O)[C@H](CC(C)C)NC(=O)[C@H](CCCNC(=N)N)NC(=O)[C@@H](N)C(C)C)C(=O)N[C@@H](Cc1c[nH]c2ccccc12)C(=O)N[C@@H](C)C(=O)N[C@H](C(=O)N[C@@H](CCCNC(=N)N)C(=O)N[C@H](C(=O)N[C@@H](Cc1c[nH]c2ccccc12)C(=O)N[C@@H](CCCNC(=N)N)C(=O)N[C@@H](CCCNC(=N)N)C(N)=O)[C@@H](C)CC)C(C)C [HE4] (H-VRLIWAVRIWRR-NH2; N-terminus assumed) | – | – | clearly superior to peptide 1018 | strongly suppressed | showed synergy | – |
| polymyxin B | – | – | – | – | – | swarming motility ([4]; low concentrations): does not have anti-swarming or anti-surfing activity; surfing motility ([4]; mucin-containing plates): does not have anti-swarming or anti-surfing activity |
| CC[C@H](C)[C@H](NC(=O)[C@H](CCCNC(=N)N)NC(=O)[C@@H](NC(=O)[C@@H](NC(=O)[C@H](CC(C)C)NC(=O)[C@H](CCCNC(=N)N)NC(=O)[C@@H](N)C(C)C)[C@@H](C)CC)C(C)C)C(=O)N[C@@H](Cc1c[nH]c2ccccc12)C(=O)N[C@@H](CCCNC(=N)N)C(=O)N[C@@H](CCCNC(=N)N)C(N)=O [HE10] (H-VRLIVRIWRR-NH2; N-terminus assumed) | – | – | clearly superior to peptide 1018 | strongly suppressed | showed synergy | – |
| CC[C@H](C)[C@H](NC(=O)[C@@H](NC(=O)[C@H](CCCNC(=N)N)NC(=O)[C@H](C)NC(=O)[C@@H](NC(=O)[C@H](CCCNC(=N)N)NC(=O)[C@H](CCCCN)NC(=O)[C@H](Cc1ccccc1)NC(=O)[C@@H](N)CCCNC(=N)N)C(C)C)C(C)C)C(=O)N[C@@H](Cc1c[nH]c2ccccc12)C(N)=O [HE12] (H-RFKRVARVIW-NH2; N-terminus assumed) | – | – | clearly superior to peptide 1018 | strongly suppressed | showed synergy | – |
| CC[C@@H](C)[C@@H](NC(=O)[C@@H](C)NC(=O)[C@@H](CCCNC(=N)N)NC(=O)[C@@H](Cc1c[nH]c2ccccc12)NC(=O)[C@@H](CCC(N)=O)NC(=O)[C@H](N)C(C)C)C(=O)N[C@H](CCCNC(=N)N)C(=O)N[C@@H](C(=O)N[C@H](CCCNC(=N)N)C(=O)N[C@@H](C(=O)N[C@@H](C(=O)N[C@H](CCCNC(=N)N)C(N)=O)[C@H](C)CC)C(C)C)C(C)C [DJK5] | 99.8 | 99.7 | – | – | – | MIC for complete inhibition of Pseudomonas aeruginosa (P. aeruginosa biofilms): 1 µg/mL; Minimal Biofilm Inhibitory Concentration (MBIC) (P. aeruginosa biofilms): 0.5 µg/mL |
